Experimental data taken from patent US8557805B2, “Fused ring compound and use thereof” (Takeda Pharmaceutical Company Limited, priority 2008, dated 2013).

Row | melting point | SMILES
1 | 188 to 190 °C | CS(=O)(=O)c1ccc(Oc2cc(OC3CCOCC3)c3[nH]c(C4=NCC(CC(N)=O)S4)cc3c2)nc1 (centres unmarked) [Example 16, 2-{2-[5-{[5-(Methylsulfonyl)pyridin-2-yl]oxy}-7-(tetrahydro-2H-pyran-4-yloxy)-1H-indol-2-yl]-4,5-dihydro-1,3-thiazol-5-yl}acetamide]
2 | 168 to 169 °C | CS(=O)(=O)c1ccc(Oc2ccc3[nH]c(C4=NCC(CC(=O)N5CCOCC5)S4)cc3c2)cn1 (centres unmarked) [Example 68, 5-{[6-(Methylsulfonyl)pyridin-3-yl]oxy}-2-[5-(2-morpholin-4-yl-2-oxoethyl)-4,5-dihydro-1,3-thiazol-2-yl]-1H-indole]
3 | 164 to 167 °C | CS(=O)(=O)Cc1ccc(Oc2cc(OC3CCOCC3)c3[nH]c(C4=NCC(CC(N)=O)S4)cc3c2)cn1 (centres unmarked) [Example 26, 2-{2-[5-({6-[(Methylsulfonyl)methyl]pyridin-3-yl}oxy)-7-(tetrahydro-2H-pyran-4-yloxy)-1H-indol-2-yl]-4,5-dihydro-1,3-thiazol-5-yl}acetamide]
4 | 189 to 190 °C | CC1(CNC(=O)CC2CN=C(c3cc4cc(Oc5ccc(S(C)(=O)=O)nc5)cc(OC5CCOCC5)c4[nH]3)S2)COC1 (centres unmarked) [Example 40, N-[(3-Methyloxetan-3-yl)methyl]-2-{2-[5-{[6-(methylsulfonyl)pyridin-3-yl]oxy}-7-(tetrahydro-2H-pyran-4-yloxy)-1H-indol-2-yl]-4,5-dihydro-1,3-thiazol-5-yl}acetamide]
5 | 230 to 232 °C | CCc1cc(Oc2ccc(S(C)(=O)=O)nc2)cc2cc(C3=NCC(CC(=O)O)S3)[nH]c12 (centres unmarked) [Example 60, [2-(7-Ethyl-5-{[6-(methylsulfonyl)pyridin-3-yl]oxy}-1H-indol-2-yl)-4,5-dihydro-1,3-thiazol-5-yl]acetic acid]
6 | 180 to 181 °C | CS(=O)(=O)c1ccc(Oc2cc(OC3CCOCC3)c3[nH]c(C4=NCC(CC(=O)N5CC(O)C5)S4)cc3c2)nc1 (centres unmarked) [Example 18, 1-({2-[5-{[5-(Methylsulfonyl)pyridin-2-yl]oxy}-7-(tetrahydro-2H-pyran-4-yloxy)-1H-indol-2-yl]-4,5-dihydro-1,3-thiazol-5-yl}acetyl)azetidin-3-ol]
7 | 205 to 208 °C | CS(=O)(=O)c1ccc(Oc2ccc3[nH]c(C4=NCC(CC(=O)O)S4)cc3c2)cn1 (centres unmarked) [Example 52, [2-(5-{[6-(Methylsulfonyl)pyridin-3-yl]oxy}-1H-indol-2-yl)-4,5-dihydro-1,3-thiazol-5-yl]acetic acid]
8 | 157 to 158 °C | CNC(=O)CC1CN=C(c2cc3cc(Oc4ccc(CS(C)(=O)=O)nc4)cc(OC4CCOCC4)c3[nH]2)S1 (centres unmarked) [Example 27, N-Methyl-2-{2-[5-({6-[(methylsulfonyl)methyl]pyridin-3-yl}oxy)-7-(tetrahydro-2H-pyran-4-yloxy)-1H-indol-2-yl]-4,5-dihydro-1,3-thiazol-5-yl}acetamide]
9 | 195 to 196 °C | CC(C)(O)CNC(=O)CC1CN=C(c2cc3cc(Oc4ccc(S(C)(=O)=O)nc4)cc(OC4CCOCC4)c3[nH]2)S1 (centres unmarked) [Example 39, N-(2-Hydroxy-2-methylpropyl)-2-{2-[5-{[6-(methylsulfonyl)pyridin-3-yl]oxy}-7-(tetrahydro-2H-pyran-4-yloxy)-1H-indol-2-yl]-4,5-dihydro-1,3-thiazol-5-yl}acetamide]
10 | 248 to 249 °C | Cc1cc(Oc2ccc(S(C)(=O)=O)nc2)cc2cc(C3=NCC(CC(=O)O)S3)[nH]c12 (centres unmarked) [Example 71, [2-(7-Methyl-5-{[6-(methylsulfonyl)pyridin-3-yl]oxy}-1H-indol-2-yl)-4,5-dihydro-1,3-thiazol-5-yl]acetic acid]
11 | 136 to 138 °C | CS(=O)(=O)c1ccc(Oc2cc(OC3CCOCC3)c3[nH]c(C4=NCC(CC(N)=O)S4)cc3c2)cn1 (centres unmarked) [Example 31, 2-{2-[5-{[6-(Methylsulfonyl)pyridin-3-yl]oxy}-7-(tetrahydro-2H-pyran-4-yloxy)-1H-indol-2-yl]-4,5-dihydro-1,3-thiazol-5-yl}acetamide]
12 | 190 to 191 °C | CN(C)C(=O)CC1CN=C(c2cc3cc(Oc4ccc(S(C)(=O)=O)nc4)ccc3[nH]2)S1 (centres unmarked) [Example 64, N,N-Dimethyl-2-[2-(5-{[6-(methylsulfonyl)pyridin-3-yl]oxy}-1H-indol-2-yl)-4,5-dihydro-1,3-thiazol-5-yl]acetamide]
13 | 157 to 158 °C | CS(=O)(=O)c1ccc(Oc2cc(OC3CCOCC3)c3[nH]c(C4=NCC(CC(=O)NCCO)S4)cc3c2)cn1 (centres unmarked) [Example 44, N-(2-Hydroxyethyl)-2-{2-[5-{[6-(methylsulfonyl)pyridin-3-yl]oxy}-7-(tetrahydro-2H-pyran-4-yloxy)-1H-indol-2-yl]-4,5-dihydro-1,3-thiazol-5-yl}acetamide]
14 | 168 to 169 °C | Cc1cc(Oc2ccc(S(C)(=O)=O)nc2)cc2cc(C3=NCC(CC(=O)NC[C@@H](C)O)S3)[nH]c12 (stereo partly drawn) [Example 77, N-[(2R)-2-Hydroxypropyl]-2-[2-(7-methyl-5-{[6-(methylsulfonyl)pyridin-3-yl]oxy}-1H-indol-2-yl)-4,5-dihydro-1,3-thiazol-5-yl]acetamide]
15 | 184 to 186 °C | Cc1cc(Oc2ccc(S(C)(=O)=O)nc2)cc2cc(C3=NCC(CC(=O)NCC(C)(C)O)S3)[nH]c12 (centres unmarked) [Example 75, N-(2-Hydroxy-2-methylpropyl)-2-[2-(7-methyl-5-{[6-(methylsulfonyl)pyridin-3-yl]oxy}-1H-indol-2-yl)-4,5-dihydro-1,3-thiazol-5-yl]acetamide]
16 | 143 to 144 °C | CNC(=O)CC1CN=C(c2cc3cc(Oc4ccc(S(C)(=O)=O)nc4)cc(OC4CCOCC4)c3[nH]2)S1 (centres unmarked) [Example 34, N-methyl-2-{2-[5-{[6-(Methylsulfonyl)pyridin-3-yl]oxy}-7-(tetrahydro-2H-pyran-4-yloxy)-1H-indol-2-yl]-4,5-dihydro-1,3-thiazol-5-yl}acetamide]
17 | 170 to 171 °C | Cc1cc(Oc2ccc(S(C)(=O)=O)nc2)cc2cc(C3=NCC(CC(=O)NC[C@H](C)O)S3)[nH]c12 (stereo partly drawn) [Example 76, N-[(2S)-2-Hydroxypropyl]-2-[2-(7-methyl-5-{[6-(methylsulfonyl)pyridin-3-yl]oxy}-1H-indol-2-yl)-4,5-dihydro-1,3-thiazol-5-yl]acetamide]
18 | 189 to 190 °C | CCc1cc(Oc2ccc(S(C)(=O)=O)nc2)cc2cc(C3=NCC(CC(=O)NC)S3)[nH]c12 (centres unmarked) [Example 62, 2-[2-(7-Ethyl-5-{[6-(methylsulfonyl)pyridin-3-yl]oxy}-1H-indol-2-yl)-4,5-dihydro-1,3-thiazol-5-yl]-N-methylacetamide]
19 | 174 to 175 °C | COCCNC(=O)CC1CN=C(c2cc3cc(Oc4ccc(S(C)(=O)=O)nc4)ccc3[nH]2)S1 (centres unmarked) [Example 66, N-(2-Methoxyethyl)-2-[2-(5-{[6-(methylsulfonyl)pyridin-3-yl]oxy}-1H-indol-2-yl)-4,5-dihydro-1,3-thiazol-5-yl]acetamide]
20 | 165 to 166 °C | CS(=O)(=O)c1ccc(Oc2cc(OC3CCOCC3)c3[nH]c(C4=NCC(CCO)S4)cc3c2)nc1 (centres unmarked) [Example 13, 2-{2-[5-{[5-(Methylsulfonyl)pyridin-2-yl]oxy}-7-(tetrahydro-2H-pyran-4-yloxy)-1H-indol-2-yl]-4,5-dihydro-1,3-thiazol-5-yl}ethanol]
21 | 172 to 173 °C | CNC(=O)CC1CN=C(c2cc3cc(Oc4ccc(S(C)(=O)=O)nc4)ccc3[nH]2)S1 (centres unmarked) [Example 79]
22 | 227 to 229 °C | CCNC(=O)CC1CN=C(c2cc3cc(Oc4ccc(S(C)(=O)=O)nc4)cc(CC)c3[nH]2)S1 (centres unmarked) [Example 63, N-Ethyl-2-[2-(7-ethyl-5-{[6-(methylsulfonyl)pyridin-3-yl]oxy}-1H-indol-2-yl)-4,5-dihydro-1,3-thiazol-5-yl]acetamide]
23 | 176 to 177 °C | CS(=O)(=O)c1ccc(Oc2cc(OC3CCOCC3)c3[nH]c(C4=NCC(CC(N)=O)S4)cc3c2)cc1 (centres unmarked) [Example 5, 2-(2-{5-[4-(Methylsulfonyl)phenoxy]-7-(tetrahydro-2H-pyran-4-yloxy)-1H-indol-2-yl}-4,5-dihydro-1,3-thiazol-5-yl)acetamide]
